What was measured:
[1] = biological target: T1, human calcitonin receptor (Homo sapiens, UniProt P30988); experiment: CRE-luciferase induction in BHK/KZ10-20-48 cells transfected with pHollex (Hollex1, Hollex2); type: cell-based; settings: Hollex1 and Hollex2 clones; 4 h at 37° C.; FIG. 3 and FIG. 4
T1 construct: Hollex encoded a protein of 474 amino acids; expressed in transfected cells; host or cells: BHK 570 / BHK/KZ10-20-48 (baby hamster kidney) stably transfected with pHollex
T1 sequence (P30988 25-474): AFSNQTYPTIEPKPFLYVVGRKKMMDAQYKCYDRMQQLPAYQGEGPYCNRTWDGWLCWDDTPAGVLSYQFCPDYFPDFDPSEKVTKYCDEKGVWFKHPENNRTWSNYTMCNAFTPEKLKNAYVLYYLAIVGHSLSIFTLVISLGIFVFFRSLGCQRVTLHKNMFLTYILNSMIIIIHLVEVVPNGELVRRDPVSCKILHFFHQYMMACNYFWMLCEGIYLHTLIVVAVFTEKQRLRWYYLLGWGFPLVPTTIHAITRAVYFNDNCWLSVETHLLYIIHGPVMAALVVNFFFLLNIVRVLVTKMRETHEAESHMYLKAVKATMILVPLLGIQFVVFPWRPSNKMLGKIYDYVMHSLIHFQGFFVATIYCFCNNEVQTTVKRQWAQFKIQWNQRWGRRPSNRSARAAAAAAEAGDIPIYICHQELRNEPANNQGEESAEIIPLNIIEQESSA
Procedure: This cell line permits the measurement of luciferase activity, adenylate cyclase activity and intracellular calcium concentrations in response to calcitonin binding to its receptor.
Plasmid KZ10 was transfected into BHK570 cells (available from ATCC as Accession no. CRL 10314) using the calcium phosphate precipitation method essentially as described by Graham and Van de Eb (Virol. 52: 456, 1973, which is incorporated by reference herein). The transfected cells were grown in growth medium (Dulbecco's modified Eagle's medium (DMEM) containing 10% fetal calf serum and 2.0 mm L-glutamine). After a few days in nonselective growth medium, the growth medium was replaced with methotrexate (MTX) selection medium (growth medium containing 250 nM MTX). The cells were then allowed to grow to confluency after which they were trypsinized and plated at limiting dilution into the wells of 96-well plates. […]
Induction was initiated by removing old medium from the wells and adding 100 μl of fresh growth medium and 100 μl of each 2× solution in triplicate sample wells. Uninduced levels were determined in triplicate wells to which 100 μl of DMEM containing 10% fetal calf serum was added. […]
Following induction, the medium was removed, and the wells were washed once with 200 μl/well PBS. […] The fold induction of luciferase for each agonist was calculated as follows: […]

[2] = biological target: T1, human calcitonin receptor; experiment: Calcitonin competition binding assay with cloned human calcitonin receptor (Hollex1, Hollex2); settings: for Results (bound 125I calcitonin): 125I calcitonin […] 10^-2 nM
Procedure: (§1) Clones Hollex1 and Hollex2 were tested for receptor-mediated ability to bind calcitonin using a competition assay. T47D cells were used as a positive control and BHK cells transfected with Zem1698 were used as a negative control.
(§2) The cells were rinsed in binding medium (500 ml RPMI 1640 (Sigma, St. Louis, Mo.), 1 mg/ml bacitracin (Sigma), and 1 mg/ml BSA (Boehringer Mannheim)) to remove the serum. […] The cells were incubated for 1.5 hours at room temperature, and then rinsed 3 times with PBS to remove unincorporated radioactivity. Five hundred microliters of 0.25N NaOH was added to each well to solubilize the cells. The samples were collected from each well and CPMs were counted on a gamma counter.

T47D cells = biological target: T2, T47D cells (Homo sapiens, UniProt P30988); experiment: Calcitonin competition binding assay with T47D cells (positive control); settings: T47D (pos. control)
T2 construct: T47D cells were used as a positive control; endogenous in cells; host or cells: T47D human breast carcinoma cells
T2 sequence (P30988 25-474): T1 sequence (P30988 25-474)
Procedure: as §1, §2

[3] = biological target: T1, human calcitonin receptor; experiment: Inositol triphosphate assay in BHK 570 cells expressing pHollex; type: cell-based
Procedure: BHK 570 cells expressing the calcitonin receptor from pHollex or mock-transfected BHK 570 cells were plated into 24-well tissue culture dishes at about 200,000 cells per well. After 24 hours, the cells in each well were labeled by incubation in 0.5 ml of Dulbecco's Modified Eagles Medium (DMEM, JRH Biosciences, Lenexa, Kans.) containing 10% fetal calf serum and 4.0 μCi/ml of myo-(2-^3 H) inositol (specific activity=20 Ci/mmol; Amersham). At the end of a 24 hour incubation, the cells were washed with 1 ml prewarmed DMEM that had been buffered with 20 mM Hepes, pH 7.0 (Sigma Chemical Co.) containing 10 mM LiCl. The wash medium was removed by aspiration and replaced with 900 μl of fresh buffered medium. The cells were incubated for five to fifteen minutes at 37° C. After incubation, appropriate concentration of each agonist or antagonist was added to triplicate wells, and the cells were incubated for 30 minutes at 37° C.
The reaction was terminated by placing the cells on ice. Following aspiration of the media, the cells were then lysed by the addition of 1 ml of cold DMEM and 1 ml of ice-cold 10% perchloric acid. After ten minutes the cell lysates were transferred to tubes containing 500 μl of 10 mM EDTA, pH 7.0. […] Ten milliliters of OPTIFLUOR (Packard Instrument Co., Menden, Conn.) were added to each sample, and the samples were counted. […]

bone resorption = settings: compared with human forms of calcitonin; background; cited from earlier work

For salmon calcitonin, the “fold induction of luciferase” value [1] was 5-10 fold, the baseline control ([2]; 200 nM unlabeled salmon calcitonin) was 27 cpm and the Kd ([2]; Hollex1) was 0.5 ± 0.2 nM. For the same substance, the Kd ([2]; Hollex2) was 0.3 ± 0.01 nM, the “Results (bound 125I calcitonin)” value ([2]; unlabeled salmon calcitonin 0.003 nM) was 10430 cpm and the “Results (bound 125I calcitonin)” value ([2]; unlabeled salmon calcitonin 0.01 nM) was 10278 cpm. The “Results (bound 125I calcitonin)” value ([2]; unlabeled salmon calcitonin 0.03 nM) was 10262 cpm, the “Results (bound 125I calcitonin)” value ([2]; unlabeled salmon calcitonin 0.1 nM) was 9711 cpm and the “Results (bound 125I calcitonin)” value ([2]; unlabeled salmon calcitonin 0.3 nM) was 8421 cpm. For the same substance, the “Results (bound 125I calcitonin)” value ([2]; unlabeled salmon calcitonin 1 nM) was 4132 cpm, the “Results (bound 125I calcitonin)” value ([2]; unlabeled salmon calcitonin 3 nM) was 1639 cpm and the “Results (bound 125I calcitonin)” value ([2]; unlabeled salmon calcitonin 10 nM) was 558 cpm. For the same substance, the “Results (bound 125I calcitonin)” value ([2]; unlabeled salmon calcitonin 30 nM) was 458 cpm, the “Results (bound 125I calcitonin)” value ([2]; unlabeled salmon calcitonin 50 nM) was 147 cpm and the Kd (T47D cells) was 0.6 ± 0.5 nM. For the same substance, the EC50 ([3]; Hollex1, 30 min at 37° C., read-out: ED50 (inositol phosphate)) was 9.5 nM, the inositol phosphate response ([3]; Hollex2) was “no response” and the “effectiveness in arresting bone resorption” value (bone resorption) was “considerably more effective”.

From patent publication US5622839A (ZymoGenetics, Inc., priority 1995, dated 1997)
